What was measured:
Assay type in all cases: cell-based, human
K562 = test: Caspase dependencies (Hoechst 33342 readout with zVAD / zFA); design: key: 0: no effect; 1: weak effect; 2: strong effect
Protocol: (§1) This assay is performed in 96 well tissue culture plates. Appropriate number of cells (adherent cells: 3 - 5*10^3, suspension cells: 8 - 10*10^3) are being seeded out in 80 µl complete medium. Adherent cells are incubated for 24 h for proper spreading out before addition of test compounds while suspension cells are immediately treated with test compounds after seeding out. The test compounds are added in 20 µl complete medium containing max 5% DMSO. The final compound concentrations in the assays are 10 µM, 3 µM,1 µM and 0.3 µM, respectively. After 24 h or 48 h incubation at culture conditions, 10 µl medium containing Hoechst 33342 dye (Sigma B-2261) at 2-5 µg/ml are added to each well. The assay plates are then further incubated for 30 minutes and subsequently analyzed with a standard inverted fluorescence microscope. The readout allows the determination of the fraction of apoptotic nuclei as well as other morphological criteria specific for apoptosis as a function of the treatment. The following scores are used: 0 relating to no activity, 1 relating to weak activity comprising less than 50% of the cells and score 2 relating to strong activity comprising more than 50% of the cells.
(§2) Caspase dependencies are being evaluated by combining the compound treatment with the pan-caspase inhibitor zVAD or its control peptide zFA (ICN Pharmaceuticals # FK009 and FK029, respectively). Both peptides are being used at 20 µM concentration. In case of caspase dependencies a clear inhibition of the specific readout in all apoptosis tests should be detected. By comparing the readout of zVAD and zFA treated samples with the compound control it is possible to detect caspase resp. cystein proteinase dependencies. In case of inhibition by zVAD but not by zFA a clear caspase dependency is obvious. An inhibition by zVAD as well as by zFA points towards the involvement of cystein proteinases in the apoptotic cascade. […]

Jurkat = test: as above; design: key: 0: no effect; 1: weak effect; 2: strong effect
Protocol: as §1, §2

HT 1080 = test: Hoechst 33342 nuclear staining (Table 3); design: key: 0 relating to no activity; 1 relating to weak activity comprising less than 50% of the cells; score 2 relating to strong activity comprising more than 50% of the cells
Method in brief: (§3)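 Adherent cells (3-5×10^3, pre-spread 24 h) or suspension cells (8-10×10^3) treated with compounds at 10, 3, 1 and 0.3 µM for 24 or 48 h, then Hoechst 33342 stained for 30 min. Apoptotic nuclear morphology scored by fluorescence microscopy: 0 none, 1 weak (<50% cells), 2 strong (>50% cells).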

HBL 100 = test: Hoechst 33342 nuclear staining (Table 3); design: key: 0 relating to no activity; 1 relating to weak activity comprising less than 50% of the cells; score 2 relating to strong activity comprising more than 50% of the cells
Method in brief: as §3

Ramos = test: Hoechst 33342 nuclear staining (Table 3); design: key: 0 relating to no activity; 1 relating to weak activity comprising less than 50% of the cells; score 2 relating to strong activity comprising more than 50% of the cells
Method in brief: as §3

## CC1(C)Cc2ccccc2-c2c(Br)c3nc4ccccc4nc3n21 [No. 2, 13-Bromo-6,6-dimethyl-5,6-dihydro-6a,7,12-triaza-dibenzo[a,h]fluorene]
K562; K562, 24h, conc 10, no peptide
  nuclear fragmentation visualized by Hoechst 33342 staining: 2
K562; K562, 24h, conc 10, with zFA 20 µM
  nuclear fragmentation visualized by Hoechst 33342 staining: 2
K562; K562, 24h, conc 10, with zVAD 20 µM
  nuclear fragmentation visualized by Hoechst 33342 staining: 2
K562; K562, 48h, conc 10, no peptide
  nuclear fragmentation visualized by Hoechst 33342 staining: 2
K562; K562, 48h, conc 10, with zFA 20 µM
  nuclear fragmentation visualized by Hoechst 33342 staining: 2
K562; K562, 48h, conc 10, with zVAD 20 µM
  nuclear fragmentation visualized by Hoechst 33342 staining: 2
Jurkat; 24h, conc 3, no peptide
  nuclear fragmentation visualized by Hoechst 33342 staining: 2
Jurkat; 24h, conc 3, with zFA 20 µM
  nuclear fragmentation visualized by Hoechst 33342 staining: 2
Jurkat; 24h, conc 3, with zVAD 20 µM
  nuclear fragmentation visualized by Hoechst 33342 staining: 2
Jurkat; 48h, conc 3, no peptide
  nuclear fragmentation visualized by Hoechst 33342 staining: 2
Jurkat; 48h, conc 3, with zFA 20 µM
  nuclear fragmentation visualized by Hoechst 33342 staining: 2
Jurkat; 48h, conc 3, with zVAD 20 µM
  nuclear fragmentation visualized by Hoechst 33342 staining: 2
HT 1080; HT 1080, 24h, 0.3 µM
  Hoechst 33342 nuclear staining (fraction of apoptotic nuclei), score: 0
HT 1080; HT 1080, 24h, 1 µM
  Hoechst 33342 nuclear staining (fraction of apoptotic nuclei), score: 0
HT 1080; HT 1080, 24h, 3 µM
  Hoechst 33342 nuclear staining (fraction of apoptotic nuclei), score: 0
HT 1080; HT 1080, 24h, 10 µM
  Hoechst 33342 nuclear staining (fraction of apoptotic nuclei), score: 0
HT 1080; HT 1080, 48h, 0.3 µM
  Hoechst 33342 nuclear staining (fraction of apoptotic nuclei), score: 0
HT 1080; HT 1080, 48h, 1 µM
  Hoechst 33342 nuclear staining (fraction of apoptotic nuclei), score: 0
HT 1080; HT 1080, 48h, 3 µM
  Hoechst 33342 nuclear staining (fraction of apoptotic nuclei), score: 0
HT 1080; HT 1080, 48h, 10 µM
  Hoechst 33342 nuclear staining (fraction of apoptotic nuclei), score: 1 (1 relating to weak activity comprising less than 50% of the cells)
HBL 100; HBL 100, 24h, 0.3 µM
  Hoechst 33342 nuclear staining (fraction of apoptotic nuclei), score: 0
HBL 100; HBL 100, 24h, 1 µM
  Hoechst 33342 nuclear staining (fraction of apoptotic nuclei), score: 0
HBL 100; HBL 100, 24h, 3 µM
  Hoechst 33342 nuclear staining (fraction of apoptotic nuclei), score: 0
HBL 100; HBL 100, 24h, 10 µM
  Hoechst 33342 nuclear staining (fraction of apoptotic nuclei), score: 0
HBL 100; HBL 100, 48h, 0.3 µM
  Hoechst 33342 nuclear staining (fraction of apoptotic nuclei), score: 0
HBL 100; HBL 100, 48h, 1 µM
  Hoechst 33342 nuclear staining (fraction of apoptotic nuclei), score: 0
HBL 100; HBL 100, 48h, 3 µM
  Hoechst 33342 nuclear staining (fraction of apoptotic nuclei), score: 0
HBL 100; HBL 100, 48h, 10 µM
  Hoechst 33342 nuclear staining (fraction of apoptotic nuclei), score: 2 (score 2 relating to strong activity comprising more than 50% of the cells)
Ramos; 24h, conc 0.3 (µM)
  Hoechst 33342 nuclear staining: 0
Ramos; 24h, conc 1 (µM)
  Hoechst 33342 nuclear staining: 0
Ramos; 24h, conc 3 (µM)
  Hoechst 33342 nuclear staining: 0
Ramos; 24h, conc 10 (µM)
  Hoechst 33342 nuclear staining: 2 (score 2 relating to strong activity comprising more than 50% of the cells)
Ramos; 48h, conc 0.3 (µM)
  Hoechst 33342 nuclear staining: 2 (score 2 relating to strong activity comprising more than 50% of the cells)
Ramos; 48h, conc 1 (µM)
  Hoechst 33342 nuclear staining: 2 (score 2 relating to strong activity comprising more than 50% of the cells)
Ramos; 48h, conc 3 (µM)
  Hoechst 33342 nuclear staining: 2 (score 2 relating to strong activity comprising more than 50% of the cells)
Ramos; 48h, conc 10 (µM)
  Hoechst 33342 nuclear staining: 2 (score 2 relating to strong activity comprising more than 50% of the cells)
